Laboratory results: US20230277490A1, “GLUTAMINE AS AN ANTICANCER THERAPY IN SOLID TUMORS” (CEDARS-SINAI MEDICAL CENTER, priority 2020, published 2023)
Values belong to the compound of their own block, whether it stands above or below them.

Assays:
Mia PaCa-2 cells [1] = experiment: Antitumor efficacy of L-Gln supplementation and CB-839 in vitro (FIG. 7); assay type: cell-based; conditions: for antitumor efficacy: single agent, Mia PaCa-2 cells in vitro
PDAC mouse models = conditions: in vivo; cited from earlier work
[2] = test system: Pancreatic cancer cells (MIAPaCa human cell line); experiment: Relative cell number / gemcitabine dose response with glutamine; assay type: cell-based; conditions: for IC50: Homo sapiens, MIAPaCa cells
pancreatic cancer cells [3] = experiment: Basal metabolic rate and mitochondrial proton leakage of pancreatic cancer cells; assay type: cell-based, human
Mia PaCa-2 cells [4] = experiment: Intracellular sodium by sodium green fluorescence intensity; assay type: cell-based; conditions: MIA PaCa-2 cells in vitro; L-Gln 40 mM, D-Gln high dose
PDAC cells [5] = experiment: PDAC cell growth / cell death in vitro; assay type: cell-based; conditions: D-Gln high dose
pancreatic cancer cells [6] = experiment: Metabolomic mass spectrometric analysis of metabolite levels; assay type: cell-based, human
Procedure: We tested how elevated glutamine affects gemcitabine efficacy. […] We next tested the metabolic impact of super-physiologic glutamine concentration (40 mM) on the gemcitabine response (0.5 μM) of pancreatic cancer cells through standard metabolomic mass spectrometric analysis. The heat map in FIG. 3 illustrates the differential metabolite accumulation with glutamine and gemcitabine treatment, as single agent and in combination. There were a number of metabolic changes that were only observed with the combination treatment. […] Importantly, high glutamine administration would reduce the concentration of gemcitabine required to cause significant cancer cell death.

PDAC cells [7] = assay type: cell-based
From the text: As L-Gln supplementation enhances the efficacy of chemotherapy, we tested whether L-Gln can lower the effective dose of gemcitabine.

PDAC cells [8] = experiment: Glutamine supplementation with increasing concentrations of gemcitabine in PDAC cells; assay type: cell-based
From the text: The ability of L-Gln supplementation to […] intracellular nucleotide stores makes it an attractive agent to pair with gemcitabine, a standard chemotherapy used in the treatment of PDAC patients whose activity is also based on its ability to inhibit DNA synthesis.
We show herein that glutamine deprivation through glutaminase inhibition increases cancer cell survival and potentiates resistance to gemcitabine in PDAC cells.

pancreatic cancer cells [9] = experiment: DNA damage accumulation; assay type: cell-based, human; conditions: combination of glutamine and gemcitabine over either single agent
[10] = at 23° C.; cited from earlier work
[11] = enteral glutamine, 47 prospective trials, over 1600 adult patients; cited from earlier work
melanoma tumor = conditions: dietary supplementation; cited from earlier work
[12] = combination 40 mM glutamine and 0.5 μM gemcitabine

SMILES: O=C(Cc1cccc(OC(F)(F)F)c1)Nc1ccc(CCCCc2nnc(NC(=O)Cc3ccccn3)s2)nn1 [CB-839]
antitumor efficacy (Mia PaCa-2 cells [1]): some antitumor efficacy | efficacy in PDAC mouse models (PDAC mouse models): failed

IC50 ([2]; MIA PaCa-2, in the presence of 2 mM glutamine (physiologic concentration)): 666 nM | IC50 ([2]; MIA PaCa-2, with 40 mM glutamine (super-physiologic concentration)): 179 nM
SMILES: Nc1ccn([C@@H]2O[C@H](CO)[C@@H](O)C2(F)F)c(=O)n1 [gemcitabine]
basal metabolic rate (pancreatic cancer cells [3]; gemcitabine alone): elevated | mitochondrial proton leakage (pancreatic cancer cells [3]; gemcitabine alone): induced

SMILES: C[C@@H]1O[C@@H](O[C@H]2C[C@@H](O)[C@]3(CO)[C@H]4[C@H](O)C[C@]5(C)[C@@H](C6=CC(=O)OC6)CC[C@]5(O)[C@@H]4CC[C@]3(O)C2)[C@H](O)[C@H](O)[C@H]1O [Ouabain]
intracellular sodium (Mia PaCa-2 cells [4]): leads to build up of intracellular sodium | PDAC cell growth / cell death (PDAC cells [5]): greater PDAC cell death

SMILES: NC(=O)CC[C@H](N)C(=O)O [L-Gln, L-glutamine]
TCA cycle metabolite levels (pancreatic cancer cells [6]; 40 mM L-Gln): did not affect the majority of TCA cycle metabolites | intracellular essential and conditionally amino acids (pancreatic cancer cells [6]; 40 mM compared to 2 mM L-Gln, PDAC cells in vitro): significantly depleted | intracellular nucleotide stores (pancreatic cancer cells [6]; 40 mM compared to control 2 mM L-Gln): significantly depleted | antitumor efficacy over time (Mia PaCa-2 cells [1]; 40 mM L-Gln compared to control 2 mM L-Gln): consistently better with antitumor efficacy | antitumor activity under glutaminase inhibition (Mia PaCa-2 cells [1]; L-Gln together with CB-839): occurred independently of glutaminase inhibition with CB-839 | antitumor efficacy (Mia PaCa-2 cells [1]): greater antitumor activity | intracellular sodium (Mia PaCa-2 cells [4]): increases intracellular sodium levels | colony formation with 5-FU (PDAC cells [7]): as effective or even more effective than 5-FU at 0.1 uM | colony formation with gemcitabine (PDAC cells [7]; 20 mM L-Gln plus gemcitabine): can enhance the efficacy gemcitabine | colony formation with paclitaxel (PDAC cells [7]; high-dose L-Gln plus paclitaxel): enhances the efficacy of paclitaxel | antitumor effects of gemcitabine (PDAC cells [8]; L-Gln 40 mM compared to 2 mM, several PDAC cell lines): consistently enhanced the antitumor effects of gemcitabine

SMILES: NC(=O)CC[C@H](N)C(=O)O [glutamine]
cell death ([2]; combination of elevated concentrations of glutamine and gemcitabine compared to either alone): dramatic increase in cell death | mitochondrial proton leakage induced by gemcitabine (pancreatic cancer cells [3]; additional glutamine treatment): reduced | basal metabolic rate (pancreatic cancer cells [3]; combination of 40 mM glutamine and 0.5 μM gemcitabine): further elevated still | free nucleotides (pancreatic cancer cells [6]; [12]): accumulation of free nucleotides | vitamin C and SAM levels (pancreatic cancer cells [6]; [12]): accumulation of vitamin C and S-adenosine methionine (SAM) | PDAC cell death with increasing concentrations of gemcitabine (PDAC cells [8]; glutamine supplementation): enhancement of PDAC cell death | cancer cell viability with increasing concentrations of gemcitabine (PDAC cells [8]; glutamine supplementation in the face of glutaminase inhibition): decreased cancer cell viability | sensitivity to gemcitabine (PDAC cells [8]; glutamine supplementation, even in the face of glutaminase inhibition): enhances sensitivity to gemcitabine | DNA damage (pancreatic cancer cells [9]): greater DNA damage accumulation | solubility [10]: 3.6% | tolerability [11]: well-tolerated | melanoma tumor growth (melanoma tumor): can inhibit melanoma tumor growth
